From patent US9493486B2, “Diazaspirocycloalkane and azaspirocycloalkane” (Hoffmann-La Roche Inc., priority 2012, dated 2016)

Molecular target: ATX (human His-tagged) (Homo sapiens (Human), UniProt Q13822)
Assay: Human ATX enzyme inhibition assay (fluorescence quenching, MR121 substrate)
Format: biochemical
Details: 30 nM ATX, 1 μM MR121 substrate, 30° C.
Source text: Human ATX Enzyme Inhibition Assay
Assay working solutions were made as follows:

Row | SMILES | IC50
1 | O=C(NC1CC2(C1)CN(C(=O)OCc1cc(F)cc(C(F)(F)F)c1)C2)c1ccc2[nH]nnc2c1 [Example 12.23, 6-[(1H-benzotriazole-5-carbonyl)-amino]-2-aza-spiro[3.3]heptane-2-carboxylic acid 3-fluoro-5-trifluoromethyl-benzyl ester] | 1910 nM
2 | O=C(OCc1cc(Cl)nc(Cl)c1)N1CCC2(CC1)CN(C(=O)c1ccc3[nH]nnc3c1)C2 [Example 12.01, (2,6-dichloropyridin-4-yl)methyl 2-(1H-benzo[d][1,2,3]triazole-5-carbonyl)-2,7-diazaspiro[3.5]nonane-7-carboxylate] | 150 nM
3 | CS(=O)(=O)c1cc(Cl)cc(COC(=O)N2CCC3(CC2)CN(C(=O)c2cccc(S(N)(=O)=O)c2)C3)c1 [Example 1.18, 3-chloro-5-(methylsulfonyl)benzyl 2-(3-sulfamoylbenzoyl)-2,7-diazaspiro[3.5]nonane-7-carboxylate] | 625 nM
4 | O=C(NCc1c[nH]nn1)N1CC2(CCN(C(=O)OCc3ccc(OC(F)(F)F)cc3F)CC2)C1 [Example 14.01, [2-Fluoro-4-(trifluoromethoxy)phenyl]methyl 2-((1H-triazol-4-ylmethyl)carbamoyl)-2,7-diazaspiro[3.5]nonane-7-carboxylate] | 41.5 nM

Second part, the compound after the results:

Row | IC50 | SMILES
5 | 7 nM | O=C(OCc1cc(Cl)cc(Cl)c1)N1CCC2(CC1)CN(C(=O)c1ccc3[nH]c(=O)oc3c1)C2 [Example 5, 3,5-Dichlorobenzyl 2-(2-oxo-2,3-dihydrobenzo[d]oxazole-6-carbonyl)-2,7-diazaspiro[3.5]nonane-7-carboxylate]
6 | 41 nM | CC(C)c1cc(Cl)ccc1OCC(=O)N1CCC2(CC1)CN(C(=O)C1CCc3[nH]nnc3C1)C2 (stereo not shown) [Example 1.27, 2-(4-chloro-2-isopropylphenoxy)-1-(2-(4,5,6,7-tetrahydro-1H-benzo[d][1,2,3]triazole-5-carbonyl)-2,7-diazaspiro[3.5]nonan-7-yl)ethanone]
7 | 35 nM | O=C(OCc1ccc(C(F)(F)F)cc1)N1CCC2(CC1)CN(C(=O)c1ccc3[nH]nnc3c1)C2 [Example 12.15, 4-(trifluoromethyl)benzyl 2-(1H-benzo[d][1,2,3]triazole-5-carbonyl)-2,7-diazaspiro[3.5]nonane-7-carboxylate]
